Reference: US7498357B2, “Chalcone compounds” (Takara Bio Inc., priority 2003, dated 2009)

How the values were obtained:
[1] = target: T1, aldose reductase derived from human muscle cells (Homo sapiens, UniProt P15121); experiment: Inhibitory activities of aldose reductase; format: biochemical; conditions: for inhibitory activities of aldose reductase (in words): concentrations as in Table 1; for inhibition at 10 µM: final concentration 10 μM; for inhibition at 10 µM / inhibition at 20 µM / inhibition at 40 µM: average of two values, read-out: Inhibitory Ratio (%) of Aldose Reductase; for inhibition at 20 µM: final concentration 20 μM; for inhibition at 40 µM: final concentration 40 μM
T1 construct: purchased Wako Pure Chemical Industries
Procedure: Inhibitory activities of aldose reductase of the compounds prepared in Examples 1 to 9 (TB3, TB4, TB5, TB6, TB7, TB8, TB9, compound (C081) or compound (C042)) were measured by the following method. Twenty microliters of 100 mM methylglyoxal was added to 10 μL of a sample (dissolved each compound in a 50% aqueous dimethyl sulfoxide solution), 100 μL of 0.2 M phosphate buffer (pH 6.2), 20 μL of 1 mM NADPH (phosphate buffer), and 10 μL of a solution of aldose reductase derived from human muscle cells (0.1 U/mL, manufactured by Wako Pure Chemical Industries, phosphate buffer). After 30 seconds passed, change in absorbance of NADPH at 340 nm was determined for 180 seconds. A 50% aqueous dimethyl sulfoxide solution was used as a negative control in place of the sample. In addition, the absorbance was determined using distilled water as a blank of each sample in place of the methylglyoxal solution. The found values are expressed as an average of the values in two experimental values. The inhibitory ratio (%) of aldose reductase was calculated in accordance with the following formula. Inhibitory Ratio (%)=[1−[(ΔAs−ΔAsb)/(ΔAc−ΔAcb)]]×100
Here, ΔAs and ΔAc are changes in absorbance per 1 minute of a sample solution, and a negative control solution, respectively, and ΔAsb and ΔAcb are changes in absorbance per 1 minute of blank of a sample solution, and a negative control solution, respectively.

RAW 264.7 cells = experiment: Suppressive activities of NO production (LPS-induced, NO2- by Griess reagent); format: cell-based; conditions: for inhibition at 10 µM / inhibition at 20 µM / inhibition at 5 µM: Mus musculus, LPS, 16 hours, read-out: Suppressive Ability for Induction of NO Production by LPS (%); for inhibition at 10 µM: RAW264.7, 10 μM; for inhibition at 20 µM: RAW264.7, 20 μM; for suppression of the induction of NO production by LPS (in words): concentrations as in Table 2; for inhibition at 5 µM: RAW264.7, 5 μM
Procedure: Suppressive activities of NO production of the compounds prepared in Examples 1 to 9 (TB3, TB4, TB5, TB6, TB7, TB8, TB9, compound (C081) and compound (C042)) were measured by the following method. RAW 264.7 cells (ATCC TIB 71) were suspended in Dulbecco's modified Eagle's medium (manufactured by Sigma, D5796) containing 10% fetal bovine serum (manufactured by Bio Whittaker, 14-506F), so as to have a concentration of 4×10^5 cells/mL, and the suspension was put to each well of a 48-well microtiter plate in an amount of 500 μL per well. The cells were cultured at 37° C. in the presence of 5% carbon dioxide gas. After 24 hours, the medium was exchanged with Dulbecco's modified Eagle's medium (manufactured by Bio Whittaker, 12-917F) containing 10% fetal bovine serum (manufactured by Bio Whittaker), 2 mM L-glutamine (manufactured by Life Tech Oriental Co., Ltd., 25030-149) without containing phenol red. A 10 mM, 5 mM, or 2.5 mM TB3, TB4, TB5, TB6, TB7, TB8, TB9, compound (C081) or compound (C042) (all are dimethyl sulfoxide solution) was added to each well in an amount of 1 μL per well. After additional 1 hour of culture, a 100 μg/mL aqueous lipopolysaccharide (LPS, manufactured by Sigma, L-2010) solution was added to each well in an amount of 5 μL per well, and the cells were cultured for 16 hours. Thereafter, the concentration of NO2^− which was produced by oxidation of NO in the medium was determined. In addition, there was set a group with addition of dimethyl sulfoxide in place of the each compound as a control. After the above-mentioned culture, 100 μL of a 4% grease reagent (manufactured by Sigma, G4410) was added to 100 μL of the supernatant of the culture medium, and the mixture was allowed to stand at room temperature for 15 minutes. Thereafter, absorbance at 540 nm was determined. The concentration of NO2^− in the medium was calculated from a calibration curve prepared from known concentrations of NaNO2 (manufactured by Sigma, S2252). All of the determinations were carried out twice. The suppressive ability of NO production of the each compound was calculated in accordance with the following formula.

| SMILES | inhibitory activities of aldose reductase (in words) [1] | inhibition at 10 µM [1] [%] | inhibition at 20 µM [1] [%] | inhibition at 10 µM (RAW 264.7 cells) [%] | inhibition at 20 µM (RAW 264.7 cells) [%] | suppression of the induction of NO production by LPS (in words) (RAW 264.7 cells) | inhibition at 40 µM [1] [%] | inhibition at 5 µM (RAW 264.7 cells) [%] |
| --- | --- | --- | --- | --- | --- | --- | --- | --- |
| CC(C)CCc1c(O)ccc(C(=O)/C=C/c2ccc(O)cc2)c1O [Compound (C042), 1-[2,4-dihydroxy-3-(3-methylbutyl)phenyl]-3-(4-hydroxyphenyl)-2-propen-1-one] | inhibitory activities of aldose reductase in a concentration-dependent manner | 47.8 | 68.7 | 19.3 | 50.2 | suppressed the induction of NO production by LPS in a concentration-dependent manner |  |  |
| COc1ccc(C(=O)/C=C/c2ccc(O)cc2)c(O)c1C/C=C(\C)C/C=C/C(C)(C)O [Compound (C081), 1-[2-hydroxy-3-(7-hydroxy-3,7-dimethyl-2,5-octadienyl)-4-methoxyphenyl]-3-(4-hydroxyphenyl)-2-propen-1-one] | inhibitory activities of aldose reductase in a concentration-dependent manner | 11.9 | 16.2 | 31.6 | 53.7 | suppressed the induction of NO production by LPS in a concentration-dependent manner | 26.7 |  |
| CC(C)=CCCC(C)(O)C1Cc2c(ccc(C(=O)/C=C/c3ccc(O)cc3)c2O)O1 (centres unmarked) [TB3, 1-[2,3-dihydro-4-hydroxy-2-(1-hydroxy-1,5-dimethyl-4-hexenyl)-benzofuran-5-yl]-3-(4-hydroxyphenyl)-2-propen-1-one] | inhibitory activities of aldose reductase in a concentration-dependent manner | 14.2 | 30.1 | 9.5 | 43.8 | suppressed the induction of NO production by LPS in a concentration-dependent manner | 53.8 | 8.9 |
| COc1ccc(C(=O)/C=C/c2ccc(O)cc2)c2c1CC(C(C)(C)O)O2 (centres unmarked) [TB4, 1-[2,3-dihydro-2-(1-hydroxy-1-methylethyl)-4-methoxybenzofuran-7-yl]-3-(4-hydroxyphenyl)-2-propen-1-one] | inhibitory activities of aldose reductase in a concentration-dependent manner | 57.4 | 57.9 | 56.4 | 63.7 | suppressed the induction of NO production by LPS in a concentration-dependent manner |  | 32.6 |
| C/C(=C\Cc1c(O)ccc(C(=O)/C=C/c2ccc(O)cc2)c1O)CCC(O)C(C)(C)O (centres unmarked) [TB5, 1-[2,4-dihydroxy-3-(6,7-dihydroxy-3,7-dimethyl-2-octenyl)phenyl]-3-(4-hydroxyphenyl)-2-propen-1-one] | inhibitory activities of aldose reductase in a concentration-dependent manner | 35.1 | 49.7 | 35.2 | 76 | suppressed the induction of NO production by LPS in a concentration-dependent manner | 66.7 | 17.9 |
| CCOC(C)(C)C(O)CC/C(C)=C/Cc1c(O)ccc(C(=O)/C=C/c2ccc(O)cc2)c1O (centres unmarked) [TB6, 1-[3-(7-ethoxy-6-hydroxy-3,7-dimethyl-2-octenyl)-2,4-dihydroxyphenyl]-3-(4-hydroxyphenyl)-2-propen-1-one] | inhibitory activities of aldose reductase in a concentration-dependent manner | 41.9 | 56.5 | 29.4 | 62.2 | suppressed the induction of NO production by LPS in a concentration-dependent manner | 66.8 | 17.3 |
| COc1ccc(C(=O)/C=C/c2ccc(O)cc2)c(O)c1CC1C2(C)CCC(O2)C1(C)C (centres unmarked) [TB7, 1-[3-(2,5-epoxy-2,6,6-trimethyl-cyclohexylmethyl)-2-hydroxy-4-methoxyphenyl]-3-(4-hydroxyphenyl)-2-propen-1-one] | inhibitory activities of aldose reductase in a concentration-dependent manner | 20.1 | 33.8 | 23.9 | 42.9 | suppressed the induction of NO production by LPS in a concentration-dependent manner | 54.3 | 12.2 |
| COc1ccc(C(=O)/C=C/c2ccc(O)cc2)c(O)c1C/C=C(\C)C/C=C/C(C)(C)OO [TB8, 1-[2-hydroxy-3-(7-hydroperoxy-3,7-dimethyl-2,5-octadienyl)-4-methoxyphenyl]-3-(4-hydroxyphenyl)-2-propen-1-one] | inhibitory activities of aldose reductase in a concentration-dependent manner | 17.9 | 32.7 | 18.7 | 36.9 | suppressed the induction of NO production by LPS in a concentration-dependent manner | 44.2 | 12.2 |
| C=C(C)C(CC/C(C)=C/Cc1c(OC)ccc(C(=O)/C=C/c2ccc(O)cc2)c1O)OO (centres unmarked) [TB9, 1-[2-hydroxy-3-(6-hydroperoxy-3,7-dimethyl-2,7-octadienyl)-4-methoxyphenyl]-3-(4-hydroxyphenyl)-2-propen-1-one] | inhibitory activities of aldose reductase in a concentration-dependent manner | 31.6 | 44.7 | 29.2 | 49.6 | suppressed the induction of NO production by LPS in a concentration-dependent manner | 57.3 | 11.2 |
